How the values were obtained:
RPE-MYC = assay: Model cell screen: CPPC complex localization and cell death, RPE-MYC; assay type: cell-based, human
Protocol: In the model screening cell lines, there was an indistinguishable threshold concentration of approximately 20 nM, which was required to show disruption of the CPPC complex by IHC at the spindle midzone and equatorial cortex of anaphase cells, indicating a failure in CPPC relocation. This similarity in the threshold effective concentration for target inhibition is, therefore, not influenced by overexpression of MYC. […] Similar data with other MYC-SL compounds were observed.

[1] = test system: panel of 98 human cancer cell lines; assay: Concentration-response in panel of 98 human cancer cell lines with MYC/MKLP2 biomarker statistical analysis (AUC, EC50, IC50, Emax, h); assay type: cell-based
Protocol: For passaging of cell lines prior to a […] (MTT) assay, cells were routinely split when reaching mid-log phase and not allowed to progress to confluence. For the determination of cytotoxicity, cells were plated in 96-well plates at 4,000 cells per well in a volume of 100 μL and cultivated for 15 to 24 hours to reach 20-30% confluence. Cells on the plate were then exposed in triplicate to test compounds at concentrations ranging from 0.06 nM to 10 μM by using 3-fold serial dilutions or a concentration range from 5 nM to 10 μM using 2-fold serial dilutions. Cells exposed to vehicle (0.1% DMSO) were used as a negative control. Three days after initiation of the treatment, 20 μL of MTT (stock solution 5 mg/mL) was added to each well before incubation at 37° C. for another 3-4 hours. The medium was then aspirated with a microplate washer (BioTek ELX50) before 50 μL of DMSO was added to each well. After incubation with shaking for 10 minutes, the 96-well plate was analyzed with a microplate reader (BioTek ELX808iu) at a wavelength of 570 nm. The relative cell number was calculated as (A570^Compound/A570^DMSO)×100%. […] Statistical analysis was performed in GraphPad Prism 8.0.2. Error bars were presented as mean±1 standard deviation.
The CellTiter-Glo® (CTG) assay determines levels of ATP, and therefore the metabolic health of cell grown in culture. […] Wells containing medium without cells were used as a baseline control to obtain a value for background luminescence. […] 150 μL of the mixture was transferred to a white 96-well microplate (Falcon, Cat. #353296) and the luminescence signal was recorded by a microplate reader (Tecan Spark).
To develop a comparative metric reflecting the level of MYC and/or MKLP2 in a given cell line, the signal intensity of the MYC and MKLP2 protein bands from immunoblot analysis were normalized to the intensity of the housekeeping protein β-ACTIN. […] Whole cell MYC and MKLP2 proteins were quantified in a panel of 98 human cancer cell lines, see Table 4, below. […]

Question: With `CNC(=O)c1cc(OC)cc(Oc2ncccc2-c2ccnc(C)c2)c1` [LG157] as the compound, how does the cell death (RPE-MYC) read?
Answer: The cell death was “extensive cell death occurred in RPE-MYC”.

Question: What about the “threshold concentration required to show disruption of the CPPC complex” value (RPE-MYC; IHC at spindle midzone and equatorial cortex of anaphase cells) of the same compound?
Answer: Its value is “approximately 20 nM”.

Question: What about the “association of oncogenic alterations (TP53, RB, PTEN, RAS, BRAF, PI3K) with response” value ([1]; 89 of the 98 cell lines) of the same compound?
Answer: Its value is “no evidence was found that these alterations were associated with either sensitivity or resistance”.

Question: And the “relation of MKLP2 protein level to response” value ([1]; 98 cell lines)?
Answer: Its value is “lower protein levels of MKLP2, but not high, predicted a favorable response”.

Question: And the “relation of MYC abundance to sensitivity” value ([1]; 98 cell lines)?
Answer: The value was “the abundance of MYC in the human cancer cell lines positively relates to sensitivity”.

Reference: patent publication US20260009085A1, “METHODS AND COMPOSITIONS FOR THE DIAGNOSIS AND TREATMENT OF CANCER” (Chengdu Anticancer Bioscience, Ltd., priority 2023, published 2026)
